Key:
Test in all cases: relative viability (nuclei count vs DMSO), 5 days (fraction); higher = more cells survive
Dovitinib + Dasatinib = compound: CN1CCN(c2ccc3nc(-c4c(N)c5c(F)cccc5[nH]c4=O)[nH]c3c2)CC1 [Dovitinib] + Cc1nc(Nc2ncc(C(=O)Nc3c(C)cccc3Cl)s2)cc(N2CCN(CCO)CC2)n1 [Dasatinib] (partner 0.075 µM)
Method in brief: (§1)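 After 5 days of treatment, lung cancer cells in 1536-well plates were fixed and stained in a single step (final 0.05% Triton X-100, 1% formaldehyde, 1 ug/ml Hoechst) and their nuclei counted on 4× images. Treatment had been applied by pin tool the day after seeding as one drug alone or as a fixed anchor-drug dose with five library-drug doses (not always all listed) in √10 steps. Relative viability is the nuclei count of treated wells divided by that of vehicle wells, and values are medians of duplicate plates.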

Dovitinib + Alpelisib = compound: CN1CCN(c2ccc3nc(-c4c(N)c5c(F)cccc5[nH]c4=O)[nH]c3c2)CC1 [Dovitinib] + Cc1nc(NC(=O)N2CCC[C@H]2C(N)=O)sc1-c1ccnc(C(C)(C)C(F)(F)F)c1 [Alpelisib] (partner 2 µM)
Method in brief: as §1

Dovitinib + Bortezomib = compound: CN1CCN(c2ccc3nc(-c4c(N)c5c(F)cccc5[nH]c4=O)[nH]c3c2)CC1 [Dovitinib] + CC(C)C[C@H](NC(=O)[C@H](Cc1ccccc1)NC(=O)c1cnccn1)B(O)O [Bortezomib] (partner 0.002 µM)
Method in brief: as §1

Dovitinib + Palbociclib = compound: CN1CCN(c2ccc3nc(-c4c(N)c5c(F)cccc5[nH]c4=O)[nH]c3c2)CC1 [Dovitinib] + CC(=O)c1c(C)c2cnc(Nc3ccc(N4CCNCC4)cn3)nc2n(C2CCCC2)c1=O [Palbociclib] (partner 0.5 µM)
Method in brief: as §1

Cell Line | relative viability (Dovitinib + Dasatinib; first compound 0.02 µM) | relative viability (Dovitinib + Dasatinib; first compound 0.06325 µM) | relative viability (Dovitinib + Dasatinib; first compound 0.2 µM) | relative viability (Dovitinib + Dasatinib; first compound 0.6325 µM) | relative viability (Dovitinib + Dasatinib; first compound 2 µM) | relative viability (Dovitinib + Alpelisib; first compound 0.02 µM) | relative viability (Dovitinib + Alpelisib; first compound 0.06325 µM) | relative viability (Dovitinib + Alpelisib; first compound 0.2 µM) | relative viability (Dovitinib + Alpelisib; first compound 0.6325 µM) | relative viability (Dovitinib + Alpelisib; first compound 2 µM) | relative viability (Dovitinib + Bortezomib; first compound 0.02 µM) | relative viability (Dovitinib + Bortezomib; first compound 0.06325 µM) | relative viability (Dovitinib + Bortezomib; first compound 0.2 µM) | relative viability (Dovitinib + Bortezomib; first compound 0.6325 µM) | relative viability (Dovitinib + Bortezomib; first compound 2 µM) | relative viability (Dovitinib + Palbociclib; first compound 0.02 µM) | relative viability (Dovitinib + Palbociclib; first compound 0.06325 µM) | relative viability (Dovitinib + Palbociclib; first compound 0.2 µM) | relative viability (Dovitinib + Palbociclib; first compound 0.6325 µM) | relative viability (Dovitinib + Palbociclib; first compound 2 µM)
NCI-H1437 | 0.414 | 0.397 | 0.353 | 0.39 | 0.452 | 0.952 | 0.981 | 0.909 | 0.904 | 0.966 | 0.471 | 0.575 | 0.493 | 0.49 | 0.523 | 0.305 | 0.301 | 0.321 | 0.32 | 0.321
NCI-H2009 | 0.261 | 0.269 | 0.336 | 0.299 | 0.354 | 1.07 | 1.16 | 1.06 | 1.14 | 1.14 | 0.816 | 0.926 | 0.991 | 0.974 | 1.08 | 0.203 | 0.202 | 0.291 | 0.353 | 0.244
NCI-H1651 | 0.388 | 0.43 | 0.484 | 0.469 | 0.486 | 0.816 | 1.06 | 0.867 | 0.898 | 0.862 | 0.957 | 0.961 | 1.03 | 1.02 | 0.91 | 0.538 | 0.532 | 0.526 | 0.53 | 0.549
LCLC-103H | 0.487 | 0.503 | 0.461 | 0.374 | 0.489 | 0.875 | 0.973 | 0.918 | 1.06 | 0.761 | 1 | 1.07 | 1.01 | 0.987 | 1.13 | 0.482 | 0.454 | 0.496 | 0.474 | 0.462
NCI-H1666 | 0.767 | 0.839 | 0.845 | 0.799 | 0.762 | 1.01 | 0.933 | 1.02 | 0.883 | 1.07 | 1 | 0.87 | 0.968 | 0.792 | 0.842 | 0.698 | 0.657 | 0.677 | 0.625 | 0.669
NCI-H1734 | 0.431 | 0.501 | 0.436 | 0.439 | 0.452 | 0.711 | 0.697 | 0.675 | 0.626 | 0.641 | 0.845 | 0.941 | 0.933 | 0.948 | 0.87 | 0.371 | 0.387 | 0.355 | 0.338 | 0.416
EPLC-272H | 0.351 | 0.346 | 0.36 | 0.37 | 0.31 | 0.9 | 0.815 | 0.97 | 0.946 | 0.888 | 0.917 | 0.949 | 0.883 | 0.875 | 0.905 | 0.314 | 0.331 | 0.314 | 0.336 | 0.328
NCI-H2023 | 0.56 | 0.565 | 0.612 | 0.578 | 0.58 | 0.558 | 0.574 | 0.606 | 0.57 | 0.523 | 0.994 | 0.963 | 1.24 | 0.995 | 0.886 | 0.357 | 0.359 | 0.388 | 0.345 | 0.359

Reference: the supplement of paper PMC10307832
